The source of these data is patent US9636299B2, “Method for treating diabetic retinopathy” (XAVIER UNIVERSITY OF LOUISIANA, priority 2012, dated 2017).

Residues, ends and D or L forms follow the SMILES beside them.

The test system of one experiment is heparanase. Briefly: Laser photocoagulation-induced retinal injury in mice, heparanase real-time RT-PCR. Format: in vivo, mouse. To be noted: apoEdp 40 mg/kg intraperitoneally once each day for 7 days, vs mice without apoEdp. The method, then:
Laser Photocoagulation-Induced Retinopathy. Female mice (C57BL/6J), aged 6-8 weeks, were used for retinal laser photocoagulation studies. The mice were treated and maintained in accordance with the ARVO Statement for the Use of Animals in Ophthalmic and Vision Research. The mice were anesthetized by intraperitoneal injection of a mixture of ketamine (100 mg/kg; Warner Lambert Co., Morris Plains, N.J.) and xylazine (10 mg/kg; Bayer AG, Leverkusen, Germany), and the pupils dilated with 2.5% tropicamide (Alcon, Fort Worth, Tex.). […]
RNA Extraction, Reverse Transcription, & PCR. […] Gene expression was measured at RNA level per 100 ng of total RNA using one-step RT-PCR kit (Bio-Rad, Hercules, Calif.). Four host genes (mouse GAPDH, mouse MMP2, mouse HPSE-1 (heparanase-1), and mouse MMP9) were analyzed to confirm relative quantitative expression levels. The primer pairs used were specifically designed and synthesized by Qiagen GmbH, Hilden, Germany (Quantitech Primer assay kit, for each host gene, catalog numbers QT01658692, QT00088396, QT00009555, and QT00040040, respectively). One-step Real-time quantitative RT-PCR reactions were performed in a 50-μL volume containing a solution of 1× supermix (iQ SYBR Green; Bio-Rad, Hercules, Calif.), 1 μM mix of forward and reverse primers, and 5 μL total RNA. […] Relative quantitative expression levels were determined for each gene. […]

The subject of a further experiment is zona occludin 1 (ZO-1). Briefly: Streptozotocin-induced diabetic mice, retinal ZO-1 immunohistochemistry. To be noted: 14 consecutive days, vs untreated diabetic. Format: in vivo, mouse. The procedure:
Streptozotocin (STZ) induced diabetes. Twelve week old C57Bl/6 mice were used for this study. Mice were induced to have diabetes by intraperitoneal injection of 170 μg/g of streptozotocin (Sigma Aldrich, St. Louis, Mo.). Controls were injected with a vehicle (0.01M sodium citrate buffer). On the third day after STZ treatment, mice tail veins were bled to test the hyperglycemic status using blood sugar detection kit (Lifescan; Johnson & Johnson, Milpitas, Calif.). Mice with blood sugar levels of >300 mg/dL on the third day after STZ treatment were considered diabetic. Eye drop treatment containing 1% apoEdp or vehicle PBS was continued 4 times a day for 14 consecutive days. Intra-peritoneal (i/p) injection containing 40 mg/kg of apoEdp or vehicle control PBS was administered once daily for 14 consecutive days. On the 15th day post-treatment, mice were euthanized, their eyes enucleated, and the retinas dissected out to use for mRNA or Western blot analysis.
Immunohistochemistry. […]
To investigate the effect of apoEdp on attenuation of ZO-1 loss, immunohistochemical detection of ZO-1 was performed in formalin-fixed de-paraffinized sections of mouse retinas of different experimental groups. […] The number of positive cells was determined in the high-power field (×400) for the retinas.

On to `CC(=O)N[C@@H](CC(C)C)C(=O)N[C@@H](CCCNC(=N)N)C(=O)N[C@@H](CCCCN)C(=O)N[C@@H](CC(C)C)C(=O)N[C@@H](CCCNC(=N)N)C(=O)N[C@@H](CCCCN)C(=O)N[C@@H](CCCNC(=N)N)C(=O)N[C@@H](CC(C)C)C(=O)N[C@@H](CC(C)C)C(=O)N[C@@H](CC(C)C)C(=O)N[C@@H](CCCNC(=N)N)C(=O)N[C@@H](CCCCN)C(=O)N[C@@H](CC(C)C)C(=O)N[C@@H](CCCNC(=N)N)C(=O)N[C@@H](CCCCN)C(=O)N[C@@H](CCCNC(=N)N)C(=O)N[C@@H](CC(C)C)C(=O)N[C@@H](CC(C)C)C(N)=O` [apoEdp, Ac-LRKLRKRLLLRKLRKRLL-amide] (Ac-LRKLRKRLLLRKLRKRLL-NH2), for which the “Expression of heparanase in retina” value with heparanase is “dramatically reduced”. For the same molecule, the “Number of ZO-1 positive cells in retina (high-power field ×400)” value with zona occludin 1 (ZO-1) (i/p injections 40 mg/kg) and with zona occludin 1 (ZO-1) (topical 1% apoEdp drops) was “significantly increased the number of positive cells” throughout.
